# Reference: patent US9815841B2, “Compounds” (GLAXOSMITHKLINE INTELLECTUAL PROPERTY DEVELOPMENT LIMITED, priority 2014, dated 2017)
# Target: T1, recombinant full length LRRK2 over-expressed in SH-SY5Y cells (Homo sapiens, UniProt Q5S007)
# T1 construct: A BacMam virus expressing full length recombinant LRRK2 was purchased from Invitrogen; host or cells: SH-SY5Y human neuroblastoma cells transduced with BacMam LRRK2 virus
# Assay: Recombinant cellular LRRK2 AlphaScreen assay (LRRK2 Ser935 phosphorylation)
# Assay type: cell-based
# Conditions: SH-SY5Y cells with BacMam LRRK2, 60 minutes compound incubation, read-out: recombinant cellcular LRRK2 alphaScreen assay (pIC50) (converted)
# Procedure: Recombinant Cellular LRRK2 AlphaScreen Assay
# A BacMam virus expressing full length recombinant LRRK2 was purchased from Invitrogen and amplified by inoculation of SF-9 cells at MOI 0.3 for 4-5 days in Sf-900 III SFM medium supplemented with 3% fetal bovine serum. Infected cell cultures were then centrifuged at 2000 g for 20 minutes, viral supernatant titer determined by anti-gp64 plaque assay and stored at 4° C.
# Affinity-purified anti-phospho LRRK2 Ser935 sheep polyclonal antibody (Dzamko et al., 2010, Biochem. J. 430: 405-413) was biotinylated by standard methods (PerkinElmer). Anti-LRRK2 rabbit polyclonal antibody was purchased from Novus Biologicals. AlphaScreen Protein A IgG Kit (including acceptor and donor beads) was purchased from Perkin Elmer.
# SH-SY5Y cells were grown in DMEM/F12 medium with 10% dialysed fetal bovine serum and harvested by treatment with 0.5% trypsin-EDTA for 5 minutes at […] followed by centrifugation at 1000 rpm for 4 minutes. The cell pellet was resuspended in Opti-MEM reduced serum media (Invitrogen) at 200,000 cells/ml and mixed with the BacMam LRRK2 virus at MOI=50. 50 μl cell solutions were then dispensed to each well of a 384-well plate and incubated at 37° C., 5% CO2 for 24 hours.
# Serial dilutions of test compounds were prepared in Opti-MEM reduced serum media (Invitrogen) and 5.6 ul transferred from compound plate to cell assay plate to achieve a top final assay concentration of 10 uM. DMSO was used in certain wells as controls. Cells were incubated at 37° C., 5% CO2 for 60 minutes. The medium was then removed and cells lysed by addition of 20 ul cell lysis buffer (Cell Signaling Technology) and incubation at 4° C. for 20 minutes. 10 ul of antibody/acceptor bead mix [(1/1000 biotinylated-pS935 LRRK2 antibody, 1/1000 total-LRRK2 antibody, 1/100 Acceptor beads in AlphaScreen detection buffer (25 mM Hepes (pH 7.4), 0.5% Triton X-100, 1 mg/ml Dextran 500 and 0.1% BSA)] was then added to each well and plates incubated for 2 hours at ambient temperature in the dark. 10 μl of donor beads solution (1/33.3 donor beads in AlphaScreen detection buffer) was then added to each well. Following incubation for a further 2 hours at ambient temperature in the dark, plates were read on an EnVision™ plate reader at emission 520-620 nm with excitation 680 nm. Dose response curve data was based on sigmoidal dose-response model.
# T1 sequence (Q5S007 whole entry): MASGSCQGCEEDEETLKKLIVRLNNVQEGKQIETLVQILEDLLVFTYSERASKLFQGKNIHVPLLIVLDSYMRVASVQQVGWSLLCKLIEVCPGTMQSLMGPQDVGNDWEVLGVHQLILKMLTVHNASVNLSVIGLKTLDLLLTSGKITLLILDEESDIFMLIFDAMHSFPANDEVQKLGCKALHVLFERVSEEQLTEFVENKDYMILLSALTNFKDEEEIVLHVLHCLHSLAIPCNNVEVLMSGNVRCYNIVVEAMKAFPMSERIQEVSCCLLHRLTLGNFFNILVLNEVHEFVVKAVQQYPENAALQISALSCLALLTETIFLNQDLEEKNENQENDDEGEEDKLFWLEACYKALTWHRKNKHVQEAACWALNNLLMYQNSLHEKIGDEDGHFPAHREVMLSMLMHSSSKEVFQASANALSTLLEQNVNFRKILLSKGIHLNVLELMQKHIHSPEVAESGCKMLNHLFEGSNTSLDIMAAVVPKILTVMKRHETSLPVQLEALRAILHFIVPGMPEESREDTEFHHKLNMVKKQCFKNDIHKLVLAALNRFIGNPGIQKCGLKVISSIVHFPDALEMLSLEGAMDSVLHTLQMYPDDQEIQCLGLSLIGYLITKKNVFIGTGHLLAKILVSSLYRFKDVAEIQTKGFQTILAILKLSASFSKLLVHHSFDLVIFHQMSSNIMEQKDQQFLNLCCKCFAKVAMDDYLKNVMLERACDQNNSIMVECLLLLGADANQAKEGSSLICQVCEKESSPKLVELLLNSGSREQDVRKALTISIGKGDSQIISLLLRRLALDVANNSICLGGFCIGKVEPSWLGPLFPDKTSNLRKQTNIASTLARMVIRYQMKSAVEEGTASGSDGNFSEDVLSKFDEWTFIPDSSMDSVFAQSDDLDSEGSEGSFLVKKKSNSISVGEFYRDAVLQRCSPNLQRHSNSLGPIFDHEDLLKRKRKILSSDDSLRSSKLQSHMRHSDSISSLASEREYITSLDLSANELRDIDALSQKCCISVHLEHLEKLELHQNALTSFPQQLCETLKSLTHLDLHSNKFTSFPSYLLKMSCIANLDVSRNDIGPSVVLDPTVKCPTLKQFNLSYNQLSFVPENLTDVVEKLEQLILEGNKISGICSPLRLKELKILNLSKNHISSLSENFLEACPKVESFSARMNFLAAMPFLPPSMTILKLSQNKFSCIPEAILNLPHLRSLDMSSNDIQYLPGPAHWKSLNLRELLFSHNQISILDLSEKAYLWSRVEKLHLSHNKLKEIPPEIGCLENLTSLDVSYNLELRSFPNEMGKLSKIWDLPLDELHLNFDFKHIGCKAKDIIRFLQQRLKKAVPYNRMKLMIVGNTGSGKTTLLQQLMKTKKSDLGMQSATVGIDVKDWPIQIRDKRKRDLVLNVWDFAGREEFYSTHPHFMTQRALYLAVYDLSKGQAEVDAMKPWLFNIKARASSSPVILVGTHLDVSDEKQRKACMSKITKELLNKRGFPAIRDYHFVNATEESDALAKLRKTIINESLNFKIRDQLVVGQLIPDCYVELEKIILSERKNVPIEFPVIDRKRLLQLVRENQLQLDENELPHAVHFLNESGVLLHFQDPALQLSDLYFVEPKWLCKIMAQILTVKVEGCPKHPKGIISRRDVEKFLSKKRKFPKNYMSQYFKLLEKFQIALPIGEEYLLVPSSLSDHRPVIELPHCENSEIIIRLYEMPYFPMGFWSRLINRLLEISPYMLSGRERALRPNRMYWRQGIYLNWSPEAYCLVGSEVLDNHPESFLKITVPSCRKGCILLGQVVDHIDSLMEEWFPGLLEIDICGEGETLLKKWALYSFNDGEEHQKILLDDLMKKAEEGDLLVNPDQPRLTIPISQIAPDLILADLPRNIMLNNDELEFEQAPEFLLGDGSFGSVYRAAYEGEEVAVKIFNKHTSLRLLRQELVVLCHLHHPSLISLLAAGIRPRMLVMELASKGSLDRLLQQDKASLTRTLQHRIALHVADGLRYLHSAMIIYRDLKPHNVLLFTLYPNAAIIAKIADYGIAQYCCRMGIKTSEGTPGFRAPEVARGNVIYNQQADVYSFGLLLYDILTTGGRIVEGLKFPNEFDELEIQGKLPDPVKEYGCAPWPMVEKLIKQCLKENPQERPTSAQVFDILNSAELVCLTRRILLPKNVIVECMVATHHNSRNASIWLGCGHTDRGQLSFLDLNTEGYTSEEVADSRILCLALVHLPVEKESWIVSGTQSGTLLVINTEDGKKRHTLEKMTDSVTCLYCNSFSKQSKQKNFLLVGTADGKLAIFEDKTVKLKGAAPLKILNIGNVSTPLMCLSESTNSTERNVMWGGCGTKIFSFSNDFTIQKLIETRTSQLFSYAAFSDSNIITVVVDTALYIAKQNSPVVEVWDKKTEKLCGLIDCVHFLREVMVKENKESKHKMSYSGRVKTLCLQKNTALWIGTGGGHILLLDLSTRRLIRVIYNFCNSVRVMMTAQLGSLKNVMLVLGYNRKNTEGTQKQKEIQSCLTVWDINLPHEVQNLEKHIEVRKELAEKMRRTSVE
row,Structure (SMILES),IC50
1,"CCOc1nc(Nc2ccc(C(=O)N3CCC4(CC3)CC4)cc2OC)nc2[nH]ccc12 [Example E16, (4-((4-ethoxy-7H-pyrrolo-[2,3-d]-pyrimidin-2-yl)amino)-3-methoxyphenyl)(6-azaspiro-[2.5]octan-6-yl)methanone]",398 nM
2,"CCOc1nc(Nc2ccc(C(=O)N3CCC4(CC3)CN(C)C4)cc2OC)nc2[nH]ccc12 [Example E13, (4-((4-ethoxy-7H-pyrrolo-[2,3-d]-pyrimidin-2-yl)amino)-3-methoxyphenyl)(2-methyl-2,7-diazaspiro-[3.5]-nonan-7-yl)methanone]",≤ 100 nM
3,"CCOc1nc(Nc2ccc(C(=O)N3CCN(C)CC3)cc2OC)nc2[nH]ccc12 [Example E3, (4-((4-ethoxy-7H-pyrrolo-[2,3-d]-pyrimidin-2-yl)amino)-3-methoxyphenyl)(4-methylpiperazin-1-yl)-methanone]",158 nM
4,"CCOc1nc(Nc2ccc(C(=O)N3CCN(C)C[C@H]3C)cc2OC)nc2[nH]ccc12 [Example E40, (R)-(2,4-dimethylpiperazin-1-yl)(4-((4-ethoxy-7H-pyrrolo-[2,3-d]-pyrimidin-2-yl)-amino)-3-methoxyphenyl)methanone]",50.1 nM
5,"CCOc1nc(Nc2ccc(C(=O)N3CCOCC3)cc2OC)nc2[nH]ccc12 [Example E1, (4-((4-ethoxy-7H-pyrrolo-[2,3-d]-pyrimidin-2-yl)amino)-3-methoxyphenyl)(morpholino)methanone]",158 nM
6,"CCOc1nc(Nc2ccc(C(=O)N3CCN(C)CC3)cc2OC)nc2[nH]cc(C)c12 [Example E31, (4-((4-ethoxy-5-methyl-7H-pyrrolo-[2,3-d]pyrimidin-2-yl)amino)-3-methoxyphenyl)(4-methylpiperazin-1-yl)methanone]",≤ 100 nM
7,"CCOc1nc(Nc2ccc(C(=O)N3CCC(N4CCN(C)CC4)CC3)cc2OC)nc2[nH]ccc12 [Example E4, (4-((4-ethoxy-7H-pyrrolo-[2,3-d]pyrimidin-2-yl)amino)-3-methoxyphenyl)(4-(4-methylpiperazin-1-yl)-piperidin-1-yl)-methanone]",≤ 100 nM
8,"CCOc1nc(Nc2ccc(C(=O)N3CCN(C)CC3)cc2OC(C)C)nc2[nH]ccc12 [Example E24, (4-((4-ethoxy-7H-pyrrolo-[2,3-d]pyrimidin-2-yl)amino)-3-isopropoxyphenyl)(4-methylpiperazin-1-yl)methanone]",398 nM

# The next lines start with the values.
row,IC50,Structure (SMILES)
1,≤ 100 nM,"CCOc1nc(Nc2ccc(C(=O)N3CCOC[C@@H]3C)cc2OC)nc2[nH]ccc12 [Example E27, (S)-(4-((4-ethoxy-7H-pyrrolo-[2,3-d]pyrimidin-2-yl)amino)-3-methoxyphenyl)(3-methylmorpholino)methanone]"
2,200 nM,"CCOc1nc(Nc2cc(F)c(C(=O)N3CCOCC3)cc2OC)nc2[nH]ccc12 [Example E2, (4-((4-ethoxy-7H-pyrrolo-[2,3-d]-pyrimidin-2-yl)amino)-2-fluoro-5-methoxyphenyl)(morpholino)methanone]"
3,≤ 100 nM,"CCOc1nc(Nc2ccc(C(=O)N3CCOCC3)cc2)nc2[nH]ccc12 [Example E9, (4-((4-ethoxy-7H-pyrrolo-[2,3-d]pyrimidin-2-yl)amino)phenyl)(morpholino)methanone]"
4,200 nM,"CCOc1cc(C(=O)N2CCOCC2)ccc1Nc1nc(OCC)c2cc[nH]c2n1 [Example E20, (3-ethoxy-4-((4-ethoxy-7H-pyrrolo-[2,3-d]pyrimidin-2-yl)amino)phenyl)(morpholino)methanone]"
